Data published in paper PMC8155809 (The Journal of General Physiology, 2021).
Like-named read-outs stand apart in the source and are kept apart here.

Target: T1, human TREK-2 (Homo sapiens, UniProt P57789)
T1 construct: expressed in transfected cells; host or cells: Xenopus laevis oocytes injected with in vitro transcribed mRNA (pFAW vector)
T1 sequence (P57789 1-543 isoform P57789-4): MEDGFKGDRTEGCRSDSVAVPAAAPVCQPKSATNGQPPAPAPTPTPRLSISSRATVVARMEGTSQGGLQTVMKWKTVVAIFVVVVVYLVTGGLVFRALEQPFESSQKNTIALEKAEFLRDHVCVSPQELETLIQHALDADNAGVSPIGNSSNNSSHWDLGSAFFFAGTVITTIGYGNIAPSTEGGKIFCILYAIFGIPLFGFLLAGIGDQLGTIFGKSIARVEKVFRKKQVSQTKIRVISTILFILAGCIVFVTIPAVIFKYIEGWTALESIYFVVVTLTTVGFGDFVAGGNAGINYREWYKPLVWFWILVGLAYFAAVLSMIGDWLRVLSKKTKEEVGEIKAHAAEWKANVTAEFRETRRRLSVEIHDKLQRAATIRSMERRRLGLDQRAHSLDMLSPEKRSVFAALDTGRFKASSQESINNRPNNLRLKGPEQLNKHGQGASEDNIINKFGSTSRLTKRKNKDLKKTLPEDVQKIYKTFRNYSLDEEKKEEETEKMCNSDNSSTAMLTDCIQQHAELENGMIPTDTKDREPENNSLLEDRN
Experiment: Macroscopic TREK-2 currents in giant excised patches from Xenopus oocytes
Format: cell-based
Description: Full-length human TREK-2 isoform 3 (NCBI accession no. NP_612191) was used throughout this study and was subcloned into the pFAW vector for expression in oocytes. The truncated construct used to generate protein (TREK-2ΔN/ΔC) is identical to that used previously to obtain crystal structures ([Dong et al., 2015]); it contains a deletion of 71 residues at the N terminus and 213 residues at the C terminus. […] Desamino chloro-fluoxetine (Toronto Research Chemicals) was dissolved in chloroform and diluted to working concentrations on the day of experimenting (maximum final concentration was 0.01%).
Oocytes were prepared for injection of mRNA by collagenase digestion followed by manual defolliculation and stored in ND96 solution that contained (in mM) 96 NaCl, 2 KCl, 1.8 CaCl2, 1 MgCl2, and 10 HEPES (pH 7.4) and was supplemented with 2.5 mM sodium pyruvate 50 µg/ml gentamycin, 50 µg/ml tetracycline, 50 µg/ml ciprofloxacin, and 100 µg/ml amikacin. Cells were injected with 1–4 ng mRNA up to 4 d after isolation. In vitro transcription of mRNA was done using the Amplicap SP6 Kit (Cambio). Experiments were performed 12–24 h after injection at room temperature (22°C unless otherwise indicated). For measurement and comparison of basal whole-cell currents, oocytes were injected with 4 ng RNA and recorded exactly 24 h after injection.
For currents recorded in Xenopus laevis oocytes, giant-patch electrodes were pulled from thick-walled borosilicate glass and polished to give pipette resistances of ∼0.3–0.5 MΩ when filled with patch solution. Pipette solution contained (in mM) 116 NMDG, 4 KCl, 1 MgCl2, 3.6 CaCl2, and 10 HEPES (pH 7.4), while the bath solution contained (in mM) 120 KCl, 1 NaCl, 2 EGTA, and 10 HEPES (pH 7.3). Patches were perfused via a gravity-flow perfusion system and a HEKA EPC 10 USB single computer–controlled amplifier was used and currents recorded using a Patchmaster v2 × 90.5 (HEKA Electronics), filtered at 1 kHz, and sampled at 10 kHz. For currents recorded in HEK293 cells, patch electrodes were pulled from thick-walled borosilicate glass and polished to give pipette resistances of ∼3–5 MΩ when filled with patch solution. The currents were recorded from excised patches with both intracellular and extracellular solution containing 200 mM KCl and 10 mM HEPES (pH 6.0 with KOH). Patches were perfused via a gravity-flow perfusion system. Data were acquired with pClamp and recorded using an Axopatch 200B (Molecular Devices), filtered at 5 kHz, and sampled at 200 kHz. Single-channel currents were analyzed in an identical manner to those obtained from bilayers (see above).
The macroscopic concentration–inhibition relationships in Figs. 1 and 2 were fitted with a modified Hill equation:
I/I0=a+1−a/1+([X]/IC50)^h, (1) where I and IO are the currents in the presence and absence of inhibitor, respectively, [X] is the concentration of inhibitor, IC50 is the inhibitor concentration at which the inhibition is half maximal, h is the Hill coefficient, and a is the fraction of unblockable current; a = 0, except where indicated in the legend to Fig. 1.
The macroscopic concentration–activation relationships in Fig. 1 E were fitted with a modified Hill equation: I/I0=a+(1−a)([X]/IC50)^h/1+([X]/IC50)^h, (2) where I and IO are the currents in the presence and absence of agonist, respectively, [X] is the concentration of agonist, IC50 is the agonist concentration at which the activation is half maximal, h is the Hill coefficient, and a is the fraction of initial current.

[1] = +40 mV, in the presence of 80 µM TPA

NCCC(Oc1ccc(C(F)(F)F)cc1)c1ccccc1 (stereo not drawn) [NFx, norfluoxetine]
h (Hill coefficient), NFx inhibition (0 mV, Fig. S4): 0.72 | h (Hill coefficient), NFx inhibition (+40 mV, Fig. S4): 0.74 | h (Hill coefficient), NFx inhibition (+40 mV, NFx on its own, Fig. 1E): 1.0 | a (fraction of unblockable current) [1]: 0.05 | h (Hill coefficient), NFx inhibition [1]: 1.2 | h (Hill coefficient), NFx inhibition (+40 mV, in the presence of 100 mM TEA): 0.8 | h (Hill coefficient), NFx inhibition (+80 mV, Fig. S4): 0.79 | IC50 (IC50, NFx inhibition of TREK-2 currents, +40 mV, NFx on its own, Fig. 1E): 2.7 µM | IC50 (IC50, NFx inhibition of macroscopic WT TREK-2 currents, 0 mV, Fig. S4): 4.2 µM | IC50 (IC50, NFx inhibition of macroscopic WT TREK-2 currents, +40 mV, Fig. S4): 2 µM | IC50 (IC50, NFx inhibition of macroscopic WT TREK-2 currents, +80 mV, Fig. S4): 1.4 µM | h (Hill coefficient), NFx inhibition (NFx on its own, Fig. 2C): 1.7 | IC50 (giant inside-out patches, physiological pH 7.4, NFx alone, read-out: IC50 for channel inhibition): ~3 µM | h (Hill coefficient), NFx inhibition (in the presence of 50 µM ML335): 0.8 | h (Hill coefficient), NFx inhibition (in the presence of 1 mM 2-APB): 0.6
